Test results published in EP0021836A1, “Clavulanic acid derivatives, process for their preparation and pharmaceutical compositions containing them” (BEECHAM GROUP PLC, priority 1979, dated 1981).
Several values for one entry are separate records, joined by “and”; a condition that tells them apart may be missing. Equal values may be shown once.

Tests used:
Kleb E70 = test: standard MIC test (synergistic and antibacterial properties); format: cell-based; details: substance alone; Kleb E70 (printed Kleb Eto in the 1st table); unit assumed
Staph Russell = test: as above; format: cell-based; details: substance alone, in µg/mL (unit assumed)
E.coli JT39 = test: as above; format: cell-based; details: substance alone, unit assumed
E. coli strain E96 = test: in-vivo subcutaneous synergistic activity with amoxycillin against intraperitoneal infection in mice; details: Escherichia coli, sc, amoxycillin alone, read-out: CD50 (the source's name)
E. coli strain E124 = test: as above; details: Escherichia coli, sc, amoxycillin alone, read-out: CD50 (the source's name)

| SMILES | MIC (Kleb E70) | MIC (Staph Russell) | MIC (E.coli JT39) | ED50 (E. coli strain E96) | ED50 (E. coli strain E124) |
| --- | --- | --- | --- | --- | --- |
| O=C(O)C1C(=CCNC2CCCCC2)OC2CC(=O)N21 (stereo not shown) [Example 3, 9-N-Cyclohexylaminodeoxyclavulanic acid] | 500 µg/mL | 8.0 | 62.5 µg/mL |  |  |
| O=C(O)C1C(=CCNC2CCCC2)OC2CC(=O)N21 (stereo not shown) [Example 2, 9-N-Cyclopentylaminodeoxyclavulanic acid] | > 500 µg/mL | 16 | 31.2 µg/mL |  |  |
| CC1(C)S[C@@H]2[C@H](NC(=O)[C@H](N)c3ccc(O)cc3)C(=O)N2[C@H]1C(=O)O [Amoxycillin] |  |  |  | > 1000 mg/kg | > 1000 mg/kg |
| CC(C)NCC=C1OC2CC(=O)N2C1C(=O)O (stereo not shown) [Example 1, 9-N-Isopropylaminodeoxyclavulanic acid] | 500 µg/mL | 8 | 31.2 µg/mL |  |  |
| O=C(O)[C@H]1/C(=C/CO)O[C@@H]2CC(=O)N21 [Clavulanic acid] |  | 16 and 31.2 | 16 µg/mL |  |  |
